# According to US8697739B2, “Bicyclic acetyl-CoA carboxylase inhibitors and uses thereof” (Novartis AG, priority 2010, dated 2014):
# Biological target: T1, human acetyl-CoA carboxylase 2 (ACC2) (Homo sapiens, UniProt O00763)
# T1 construct: The cDNA encoding amino acids 144 to 2458 of human acetyl-CoA carboxylase 2; made in house; host or cells: Sf9 insect cells (baculovirus, pFastBac1)
# Assay: Acetyl-CoA carboxylase enzyme assay (malonyl-CoA formation by LC/MS/MS)
# Format: biochemical
# Conditions: recombinant human ACC2 (aa 144-2458); read-out: IC50 ACC2
# In short: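 Malonyl-CoA formation was read by LC/MS/MS MRM against a [13C3]-malonyl-CoA internal standard, after acetic acid quench. The enzyme was baculovirus/Sf9-expressed human ACC2 residues 144–2458, given 15 minutes room-temperature compound preincubation in HEPES pH 7.5 buffer with MgCl2, citrate and DTT. Substrate solution held 50 μM acetyl-CoA, 120 μM ATP and 2 mM KHCO3.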
# T1 sequence (O00763 144-2458): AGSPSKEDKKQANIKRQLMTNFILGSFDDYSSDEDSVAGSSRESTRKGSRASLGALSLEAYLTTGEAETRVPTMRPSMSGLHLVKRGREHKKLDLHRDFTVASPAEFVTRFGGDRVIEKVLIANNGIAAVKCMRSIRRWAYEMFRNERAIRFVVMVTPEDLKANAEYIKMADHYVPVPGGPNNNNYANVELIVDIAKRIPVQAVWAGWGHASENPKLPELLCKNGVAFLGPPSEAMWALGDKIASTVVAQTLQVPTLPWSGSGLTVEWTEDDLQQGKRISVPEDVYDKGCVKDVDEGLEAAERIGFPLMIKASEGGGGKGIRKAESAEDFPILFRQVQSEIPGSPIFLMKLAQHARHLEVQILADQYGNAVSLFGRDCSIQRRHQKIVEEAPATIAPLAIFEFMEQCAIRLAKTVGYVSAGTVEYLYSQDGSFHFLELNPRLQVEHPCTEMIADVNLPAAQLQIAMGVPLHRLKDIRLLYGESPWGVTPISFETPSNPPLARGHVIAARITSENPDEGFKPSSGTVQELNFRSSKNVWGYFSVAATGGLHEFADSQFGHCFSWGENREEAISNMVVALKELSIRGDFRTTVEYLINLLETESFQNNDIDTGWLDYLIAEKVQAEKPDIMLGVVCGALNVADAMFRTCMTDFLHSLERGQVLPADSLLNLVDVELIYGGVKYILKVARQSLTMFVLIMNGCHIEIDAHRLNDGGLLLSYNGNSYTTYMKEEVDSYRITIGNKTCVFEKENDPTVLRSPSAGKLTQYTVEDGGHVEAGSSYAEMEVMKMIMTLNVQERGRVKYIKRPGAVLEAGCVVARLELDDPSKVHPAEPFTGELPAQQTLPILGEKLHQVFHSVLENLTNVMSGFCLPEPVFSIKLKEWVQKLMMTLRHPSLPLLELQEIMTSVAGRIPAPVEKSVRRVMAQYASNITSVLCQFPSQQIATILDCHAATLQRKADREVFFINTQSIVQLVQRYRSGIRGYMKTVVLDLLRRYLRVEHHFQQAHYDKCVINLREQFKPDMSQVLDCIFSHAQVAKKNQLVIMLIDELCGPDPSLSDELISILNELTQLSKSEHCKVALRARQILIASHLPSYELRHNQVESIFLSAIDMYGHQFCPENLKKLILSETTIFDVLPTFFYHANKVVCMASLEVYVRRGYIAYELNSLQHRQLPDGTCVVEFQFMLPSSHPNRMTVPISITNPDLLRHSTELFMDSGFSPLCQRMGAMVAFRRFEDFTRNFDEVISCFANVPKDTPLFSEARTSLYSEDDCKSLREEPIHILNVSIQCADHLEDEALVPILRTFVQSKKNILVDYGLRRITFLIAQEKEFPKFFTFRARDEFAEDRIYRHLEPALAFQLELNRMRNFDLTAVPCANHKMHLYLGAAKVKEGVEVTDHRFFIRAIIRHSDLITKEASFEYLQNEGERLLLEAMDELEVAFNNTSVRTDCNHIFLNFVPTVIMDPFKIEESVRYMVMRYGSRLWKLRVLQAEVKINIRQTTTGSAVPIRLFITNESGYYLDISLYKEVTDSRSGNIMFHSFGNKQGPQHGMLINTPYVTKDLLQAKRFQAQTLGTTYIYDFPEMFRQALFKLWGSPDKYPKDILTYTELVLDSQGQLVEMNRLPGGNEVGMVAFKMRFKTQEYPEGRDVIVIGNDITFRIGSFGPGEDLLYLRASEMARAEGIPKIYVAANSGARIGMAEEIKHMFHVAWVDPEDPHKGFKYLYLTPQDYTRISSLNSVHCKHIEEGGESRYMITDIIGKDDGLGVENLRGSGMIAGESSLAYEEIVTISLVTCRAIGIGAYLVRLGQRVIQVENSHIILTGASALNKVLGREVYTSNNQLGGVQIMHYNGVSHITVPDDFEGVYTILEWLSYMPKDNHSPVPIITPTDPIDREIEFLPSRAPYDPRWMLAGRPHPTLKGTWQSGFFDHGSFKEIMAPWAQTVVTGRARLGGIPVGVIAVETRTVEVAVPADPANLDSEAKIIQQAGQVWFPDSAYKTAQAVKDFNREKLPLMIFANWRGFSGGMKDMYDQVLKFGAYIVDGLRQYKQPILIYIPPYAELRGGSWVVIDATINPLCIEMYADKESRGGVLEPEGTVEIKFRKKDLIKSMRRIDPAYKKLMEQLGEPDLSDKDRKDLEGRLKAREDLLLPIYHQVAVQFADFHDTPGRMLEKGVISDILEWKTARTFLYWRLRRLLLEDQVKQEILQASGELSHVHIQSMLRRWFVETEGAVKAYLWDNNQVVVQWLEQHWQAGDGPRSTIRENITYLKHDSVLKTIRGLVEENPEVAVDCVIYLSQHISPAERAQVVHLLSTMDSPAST
row,IC50,Structure (SMILES)
1,125 nM,"O=C(NC1Cc2ccccc2C1)[C@H]1CC[C@H](NS(=O)(=O)c2ccc3[nH]c(-c4ccccc4)nc3c2)CC1 [Example 638, (1r,4r)-N-(2,3-dihydro-1H-inden-2-yl)-4-(2-phenyl-1H-benzo[d]imidazole-5-sulfonamido)cyclohexanecarboxamide]"
2,85 nM,"C[C@@H](NC(=O)[C@H]1CC[C@H](NS(=O)(=O)c2ccc3nc(N4CCNC5(CC5)C4)ccc3c2)CC1)c1ccc(F)cc1 [Example 237, (1r,4R)-4-(2-(4,7-diazaspiro[2.5]octan-7-yl)quinoline-6-sulfonamido)-N-((R)-1-(4-fluorophenyl)ethyl)cyclohexanecarboxamide]"
3,30 nM,"COc1ccc(Nc2nc3cc(S(=O)(=O)N[C@H]4CC[C@H](C(=O)OC(C)C)CC4)ccc3[nH]2)cc1 [Example 555, (1r,4r)-isopropyl 4-(2-(4-methoxyphenylamino)-1H-benzo[d]imidazole-5-sulfonamido)cyclohexanecarboxylate]"
4,130 nM,"Cn1c(-c2ccccc2)cc2ccc(S(=O)(=O)N[C@H]3CC[C@H](C(=O)N4CCCOCC4)CC3)cc21 [Example 402, N-((1r,4r)-4-(1,4-oxazepane-4-carbonyl)cyclohexyl)-1-methyl-2-phenyl-1H-indole-6-sulfonamide]"
5,60 nM,"C[C@@H](NC(=O)[C@H]1CC[C@H](NS(=O)(=O)c2ccc3nc(-c4ccccn4)ccc3c2)CC1)c1ccc(F)cc1 [Example 230, (1r,4R)-N-((R)-1-(4-fluorophenyl)ethyl)-4-(2-(pyridin-2-yl)quinoline-6-sulfonamido)cyclohexanecarboxamide]"
6,115 nM,"CN1CCN(c2ccc(-c3nc4cc(S(=O)(=O)N[C@H]5CC[C@H](c6nnc(C(C)(C)C)o6)CC5)ccc4[nH]3)cc2)CC1 [Example 10, N-((1r,4r)-4-(5-tert-butyl-1,3,4-oxadiazol-2-yl)cyclohexyl)-2-(4-(4-methylpiperazin-1-yl)phenyl)-1H-benzo[d]imidazole-5-sulfonamide]"
7,435 nM,"C[C@@H](NC(=O)[C@H]1CC[C@H](NS(=O)(=O)c2cnc3nc(-c4ccccc4)sc3c2)CC1)c1ccc(F)cc1 [Example 52, (1r,4R)-N-((R)-1-(4-fluorophenyl)ethyl)-4-(2-phenylthiazolo[4,5-b]pyridine-6-sulfonamido)cyclohexanecarboxamide]"
8,15 nM,"COC(=O)CCc1ccc(-c2cc3ccc(S(=O)(=O)N[C@H]4CC[C@H](C(=O)N5CCCC5C(C)(C)C)CC4)cc3n2C)cc1 (some centres unmarked) [Example 394, methyl 3-(4-(6-(N-((1r,4r)-4-(2-tert-butylpyrrolidine-1-carbonyl)cyclohexyl)sulfamoyl)-1-methyl-1H-indol-2-yl)phenyl)propanoate]"
9,30 nM,"CCN(C)C(=O)[C@H]1CC[C@H](NS(=O)(=O)c2ccc3c(Cl)c(-c4ccc(CCC(=O)OC)cc4)n(C)c3c2)CC1 [Example 367, methyl 3-(4-(3-chloro-6-(N-((1r,4r)-4-(ethyl(methyl)carbamoyl)cyclohexyl)sulfamoyl)-1-methyl-1H-indol-2-yl)phenyl)propanoate]"
10,65 nM,"COC[C@H]1CCCN1C(=O)[C@H]1CC[C@H](NS(=O)(=O)c2ccc3c(C#N)c(C4CC4)n(C)c3c2)CC1 [Example 418, 3-cyano-2-cyclopropyl-N-((1R,4r)-4-((R)-2-(methoxymethyl)pyrrolidine-1-carbonyl)cyclohexyl)-1-methyl-1H-indole-6-sulfonamide]"
11,40 nM,"Cn1c(-c2ccccc2)cc2ccc(S(=O)(=O)N[C@H]3CC[C@H](C(=O)N4CCNC(C(F)(F)F)C4)CC3)cc21 (some centres unmarked) [Example 324, 1-methyl-2-phenyl-N-((1r,4r)-4-(3-(trifluoromethyl)piperazine-1-carbonyl)cyclohexyl)-1H-indole-6-sulfonamide]"
12,10 nM,"C[C@@H](NC(=O)[C@H]1CC[C@H](NS(=O)(=O)c2ccc3nc(-c4cccc(C(=O)O)c4)ccc3c2)CC1)c1ccc(F)cc1 [Example 249, 3-(6-(N-((1R,4r)-4-((R)-1-(4-fluorophenyl)ethylcarbamoyl)cyclohexyl)sulfamoyl)quinolin-2-yl)benzoic acid]"
13,39 nM,"CCOc1ccc2cc(S(=O)(=O)N[C@H]3CC[C@H](C(=O)N[C@H](COC(=O)[C@@H](N)Cc4ccccc4)c4ccccc4)CC3)ccc2n1 [Example 273, (S)-((S)-2-((1r,4S)-4-(2-ethoxyquinoline-6-sulfonamido)cyclohexanecarboxamido)-2-phenylethyl) 2-amino-3-phenylpropanoate]"
14,> 35000 nM,"C[C@H](NC(=O)[C@H]1CC[C@H](NS(=O)(=O)c2ccc3ccccc3c2)CC1)c1cccnc1 [Example 683, (1r,4S)-4-(naphthalene-2-sulfonamido)-N-((S)-1-(pyridin-3-yl)ethyl)cyclohexanecarboxamide]"
15,240 nM,"CCOC(=O)C1CCCCN1C(=O)[C@H]1CC[C@H](NS(=O)(=O)c2ccc3cc(-c4ccc(COC)cc4)n(C)c3c2)CC1 (some centres unmarked) [Example 341, ethyl 1-((1r,4r)-4-(2-(4-(methoxymethyl)phenyl)-1-methyl-1H-indole-6-sulfonamido)cyclohexanecarbonyl)piperidine-2-carboxylate]"
16,< 10 nM,"Cn1c(-c2ccccc2)cc2ccc(S(=O)(=O)N[C@H]3CC[C@H](C(=O)N[C@@H](c4ccccc4)C(C)(C)C(=O)O)CC3)cc21 [Example 411, (S)-2,2-dimethyl-3-((1r,4S)-4-(1-methyl-2-phenyl-1H-indole-6-sulfonamido)cyclohexanecarboxamido)-3-phenylpropanoic acid]"
17,245 nM,"O=C([C@H]1CC[C@H](NS(=O)(=O)c2ccc3c(c2)NC(C(F)(F)F)CC3)CC1)N1CCNCC1c1ccccc1 (some centres unmarked) [Example 187, N-((1r,4r)-4-(2-phenylpiperazine-1-carbonyl)cyclohexyl)-2-(trifluoromethyl)-1,2,3,4-tetrahydroquinoline-7-sulfonamide]"
18,470 nM,"CC(C)n1c(-c2ccc(F)cc2)c(Cl)c2ccc(S(=O)(=O)N[C@H]3CC[C@H](C(=O)N4CCNC(C(F)(F)F)C4)CC3)cc21 (some centres unmarked) [Example 350, 3-chloro-2-(4-fluorophenyl)-1-isopropyl-N-((1r,4r)-4-(3-(trifluoromethyl)piperazine-1-carbonyl)cyclohexyl)-1H-indole-6-sulfonamide]"
19,135 nM,"Cc1ccccc1-c1cc2ccc(S(=O)(=O)N[C@H]3CC[C@H](C(=O)N4CCN[C@H](C(F)(F)F)C4)CC3)cc2[nH]1 [Example 342, 2-o-tolyl-N-((1S,4r)-4-((S)-3-(trifluoromethyl)piperazine-1-carbonyl)cyclohexyl)-1H-indole-6-sulfonamide]"
20,144 nM,"C[C@@H](NC(=O)[C@H]1CC[C@H](NS(=O)(=O)c2ccc3ccccc3c2)CC1)c1cccnc1 [Example 682, (1r,4R)-4-(naphthalene-2-sulfonamido)-N-((R)-1-(pyridin-3-yl)ethyl)cyclohexanecarboxamide]"
21,20 nM,"Cc1cc(CO)ccc1-c1cc2ccc(S(=O)(=O)N[C@H]3CC[C@H](C(=O)N[C@H](C)c4ccc(F)cc4)CC3)cc2n1C [Example 315, (1r,4R)-N-((R)-1-(4-fluorophenyl)ethyl)-4-(2-(4-(hydroxymethyl)-2-methylphenyl)-1-methyl-1H-indole-6-sulfonamido)cyclohexanecarboxamide]"
22,296 nM,"C[C@@H](NC(=O)[C@H]1CC[C@H](NS(=O)(=O)c2ccc3[nH]c([C@@H]4CCCO4)nc3c2)CC1)c1ccc(F)cc1 [Example 114, (1r,4R)-N-((R)-1-(4-fluorophenyl)ethyl)-4-(2-((S)-tetrahydrofuran-2-yl)-1H-benzo[d]imidazole-5-sulfonamido)cyclohexanecarboxamide]"
23,147 nM,"Cc1c[nH]c2ncc(S(=O)(=O)N[C@H]3CC[C@H](C(=O)N[C@H](C)c4ccc(F)cc4)CC3)cc12 [Example 138, (1r,4R)-N-((R)-1-(4-fluorophenyl)ethyl)-4-(3-methyl-1H-pyrrolo[2,3-b]pyridine-5-sulfonamido)cyclohexanecarboxamide]"
24,32500 nM,"C[C@@H](NC(=O)[C@H]1CC[C@H](NC(=O)c2ccc3[nH]c(-c4ccccc4)nc3c2)CC1)c1ccc(F)cc1 [Example 662, N-((1R,4r)-4-((R)-1-(4-fluorophenyl)ethylcarbamoyl)cyclohexyl)-2-phenyl-1H-benzo[d]imidazole-5-carboxamide]"
25,95 nM,"COC(=O)[C@@H](NC(=O)[C@H]1CC[C@H](NS(=O)(=O)c2ccc3cc(-c4ccccc4)n(C)c3c2)CC1)c1ccccc1 [Example 351, (S)-methyl 2-((1r,4S)-4-(1-methyl-2-phenyl-1H-indole-6-sulfonamido)cyclohexanecarboxamido)-2-phenylacetate]"
26,1380 nM,"CC(C)OC(=O)c1ccc(NS(=O)(=O)c2ccc3nc(-c4ccc(N(C)C)cc4)[nH]c3c2)cc1 [Example 508, isopropyl 4-(2-(4-(dimethylamino)phenyl)-1H-benzo[d]imidazole-6-sulfonamido)benzoate]"
27,12 nM,"C[C@@H](NC(=O)[C@H]1CC[C@H](NS(=O)(=O)c2ccc3[nH]c(-c4ccncc4)nc3c2)CC1)c1ccccc1 [Example 280, (1r,4R)-N-((R)-1-phenylethyl)-4-(2-(pyridin-4-yl)-1H-benzo[d]imidazole-5-sulfonamido)cyclohexanecarboxamide]"
28,18 nM,"C[C@@H](NC(=O)[C@H]1CC[C@H](NS(=O)(=O)c2ccc3cc(-c4ccccc4)[nH]c3c2)CC1)c1ccccc1 [Example 282, (1r,4R)-4-(2-phenyl-1H-indole-6-sulfonamido)-N-((R)-1-phenylethyl)cyclohexanecarboxamide]"
29,355 nM,"COCCNC(=O)c1ccc2cc(S(=O)(=O)N[C@H]3CC[C@H](C(=O)N[C@H](C)c4ccc(F)cc4)CC3)ccc2n1 [Example 207, 6-(N-((1R,4r)-4-((R)-1-(4-fluorophenyl)ethylcarbamoyl)cyclohexyl)sulfamoyl)-N-(2-methoxyethyl)quinoline-2-carboxamide]"
